Measured values: patent publication US20260055083A1, “APOL1 INHIBITORS AND METHODS OF USE” (Maze Therapeutics, Inc., priority 2022, published 2026)

Experiments:
APOL1 G2 [1] = target: T1, APOL1 G2 (Homo sapiens, UniProt O14791, DEL388-389); assay: APOL1 G2 FLIPR calcium influx assay (HEK T-REx/GCaMP6f/APOL1 G2 K6.3 cells); format: cell-based; conditions: HEK293 clone expressing GCaMP6f, doxycycline-induced APOL1 G2; prevention of calcium influx; geometric mean of at least 2 assay runs
T1 construct: expressed in transfected cells; host or cells: HEK293/T-REx APOL1 G2 clone #2, doxycycline-inducible
T1 sequence (O14791 with tags, fused parts or gaps DEL388-389): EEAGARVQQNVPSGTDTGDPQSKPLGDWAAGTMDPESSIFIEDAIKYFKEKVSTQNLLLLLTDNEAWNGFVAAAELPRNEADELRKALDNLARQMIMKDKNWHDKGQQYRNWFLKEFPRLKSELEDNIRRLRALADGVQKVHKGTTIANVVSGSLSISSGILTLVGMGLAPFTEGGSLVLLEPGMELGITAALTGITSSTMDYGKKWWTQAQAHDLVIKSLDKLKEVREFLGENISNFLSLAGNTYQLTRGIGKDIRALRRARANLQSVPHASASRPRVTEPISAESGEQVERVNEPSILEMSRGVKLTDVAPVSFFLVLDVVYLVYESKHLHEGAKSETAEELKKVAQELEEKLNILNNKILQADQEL
Description: A HEK293 clonal cell line was generated to stably express GCaMP6f, a genetically encoded calcium indicator, and inducibly express APOL1 G2 (HEK T-REx/GCaMP6f/APOL1 G2 K6.3). Cells were maintained in the following standard complete medium: DMEM with 4.5 g/L glucose and sodium pyruvate (BioWhittaker, Lonza, BE12-614F), supplemented with 10% FBS Performance Plus (Gibco, 16000044), 1% penicillin-streptomycin (BioWhittaker, DE17-602E), 2 mM ultraglutamine-1 (BioWhittaker cat. BE 17-605/U1), 50 μg/mL Zeocin (InvivoGen, ant-zn), 2.5 μg/mL Blasticidin (InvivoGen, ant-bl-5), and 25 μg/mL Hygromycin (InvivoGen, ant-hg). Standard propagation conditions consisted of plating 9×10^6, 4×10^6, 2×10^6 cells in a T225 flasks to be processed after 2, 3, or 4 days, respectively.
A source plate was generated containing 20 serially diluted compounds in DMSO (duplicate 8-point dose response). Next, 0.8 μL of compounds were transferred from the source plate to a destination plate prefilled with 79.2 μL of Ca^2+ free Tyrode's buffer (130 mM NaCl, 5 mM KCl, 1 mM MgCl2, 5 mM NaHCO3, 20 mM HEPES at pH 7.4). The destination plate was placed on a plate shaker (5 seconds at 2000 rpm) to mix. […] All transfer and mixing steps were conducted with an CyBi®-Well dispenser.
Cells were split by gently washing with DPBS (Euroclone, ECB4004L), followed by a 5-minute incubation (humidified, 37° C. with 5% CO2) with trypsin-EDTA solution (Euroclone, ECB3052D). Detached cells were diluted with standard complete medium without selective agents, counted, and plated in a 384 MTP microplate (GR4332CPL, Twin Helix) (10,000 cells/well in 25 μl/well) using a MATRIX WellMate dispenser. Plates were placed into a humidified incubator (37° C. with 5% CO2) overnight. The following day, 20 μL of doxycycline (Sigma, D9891) at 20 ng/mL in standard complete medium was added to cells with a CyBi®Drop dispenser to induce APOL1 G2 expression. After a 6-hour incubation (humidified, 37° C. with 5% CO2), cells were washed 3 times with Ca^2+ free Tyrode's Buffer (130 mM NaCl, 5 mM KCl, 1 mM MgCl2, 5 mM NaHCO3, 20 mM HEPES at pH 7.4) using a BIOTEK Microplate washer, such that 10 μL of buffer remained in each well after the final wash. Assay plates were then stored at room temperature for 10 minutes. Next, 10 μL of diluted compounds were transferred to the assay plate from the 2× compound plate using a CyBi®-Well dispenser. Compound incubation was then carried out at room temperature for 10 minutes. The assay plate was transferred to the […] and 20 μL of 10 mM Ca^2+ (final concentration=5 mM) Tyrode's buffer was injected.
Table B1 below summarizes the data from this experiment. Unless otherwise specified, AC50 and values are reported as the geometric mean of at least 2 assay runs on separate days. Each run represents the average of a technical replicate, where each compound was assayed twice in the same plate. A superscript t symbol indicates a value from the average of a technical replicate from a single assay run, where each compound was assayed twice in the same plate.
The AC50 values in Table B1 below reflect the compound's ability to prevent calcium influx by inhibiting APOL1. […] Compounds in Table B1 are referred to by the corresponding Compound Number in Table 1, which is also referred to in the synthetic examples. When one or more of the numbered compounds are identified by stereochemistry (for example, (R)- or (S)-), the specific stereoisomer for which data is provided in Table B1 may be identified by the elution order of such compound as described in the synthetic examples. To illustrate, Compound 2 is the first-eluting enantiomer of step 4 of Example 1 and Compound 3 is the second-eluting enantiomer of step 4 of Example 1. Further, by way of illustration, Compound 27 is the first-eluting enantiomeric mixture in step 4 of Example 7 and Compound 28 is the second-eluting enantiomeric mixture in step 4 of Example 7. […]

APOL1 G2 [2] = target: T1, APOL1 G2; assay: APOL1 G2 HEK293 rescue of cell death caused by overexpression of APOL1 (CellTiter-Glo); format: cell-based; conditions: HEK293/T-REx APOL1 G2 clone #2, doxycycline induction, 17 hours, CellTiter-Glo luminescence; reversal of cell death; geometric mean of at least 2 assay runs
Description: A HEK293 clonal cell line overexpressing APOL1 G2 (HEK293/T-REx APOL1 G2/clone #2) was maintained in 1×DMEM-GlutaMax (Gibco, 10569-010) media with 10% tetracycline-free FBS (Takara Bio USA, 631101), 5 μg/mL Blasticidin (Gibco, A1113903), and 100 μg/mL Zeocin (Invitrogen, R25001) in T75 flasks. In preparation for the assay, this media was aspirated and 2 mL of prewarmed TrypLE Express (Gibco, 12605-010) was added to a flask to detach cells. The flask was then incubated (humidified, 37° C. with 5% CO2) for 3-5 minutes. Afterwards, 8 mL of prewarmed cell assay media (1×DMEM-GlutaMax media with 10% tetracycline-free FBS) was added to the trypsinized cells. The suspension was gently mixed, and cells were counted using a Countess Cell Counting Chamber (Invitrogen). The suspension was diluted using cell assay media to generate a working stock solution (166,667 cells/mL). Using a MultiDrop Combi (Thermo Electron Corp), 30 μL (final cell density=5,000 cells/well) of the working stock solution was dispensed into each well of white 384-well assay ready plates (Nunc™, 164610) containing 6 ng/mL doxycycline, to induce APOL1 expression, and compound. All compounds were plated in a duplicate 8-point dilution series that consisted of 3-fold stepwise dilutions (0.5% DMSO final). Assay plates were incubated (humidified, 37° C. with 5% CO2) for 17 hours. After the incubation, the plates were equilibrated at room temperature for 1 hour. Next, 15 μl of CellTiter-Glo® reagent (Promega, G7570) was added to each well using a MultiDrop Combi. Plates were placed on an orbital shaker (500 rpm) for 5 minutes to induce cell lysis and then incubated at room temperature for 10 minutes. Luminescence was measured on an Envision plate reader. Collaborative Drug Discovery software was utilized for graphing data. Plots were generated using a four parameter logistic curve fit.
Table B2 below provides the results from this experiment. Unless otherwise specified, EC50 values are reported as the geometric mean of at least 2 assay runs on separate days. Each run represents the average of a technical replicate, where each compound was assayed twice in the same plate. A superscript t symbol indicates a value from the average of a technical replicate from a single assay run, where each compound was assayed twice in the same plate. Compounds in Table B2 are referred to by the corresponding Compound Number in Table 1, which is also referred to in the synthetic examples. When one or more of the numbered compounds are identified by stereochemistry (for example, (R)- or (S)-), the specific stereoisomer for which data is provided in Table B2 may be identified by the elution order of such compound as described in the synthetic examples. To illustrate, Compound 2 is the first-eluting enantiomer of step 4 of Example 1 and Compound 3 is the second-eluting enantiomer of step 4 of Example 1. Further, by way of illustration, Compound 27 is the first-eluting enantiomeric mixture in step 4 of Example 7 and Compound 28 is the second-eluting enantiomeric mixture in step 4 of Example 7. Then, Compound 27 is separated into Compound 29 (the first-eluting enantiomer) and Compound 30 (the second-eluting enantiomer) in Example 8, and Compound 28 is separated into Compound 31 (the first-eluting enantiomer) and Compound 32 (the second-eluting enantiomer) in Example 8. Absolute stereochemistry of such compounds may be identified by methods known in the art.
Rescue EC50 values reported in Table B2 below represent the half-maximal effective concentration for reversal of cell death caused by overexpression of APOL1.

AC50 (APOL1 G2 [1]) [nM] | Compound | EC50 (APOL1 G2 [2]) [nM]
1030 | C[C@@H]1C[C@H](COc2ccc(S(C)(=O)=O)cc2)CN1C1Cc2ccc(Cl)cc2C1 (single isomer, unassigned) [Compound 2] | 693
721 | C[C@@H]1C[C@H](COc2ccc(S(C)(=O)=O)cc2)CN1C1Cc2ccc(Cl)cc2C1 (single isomer, unassigned) [Compound 3, (2R,4S)-1-[(2R or 2S)-5-chloro-2,3-dihydro-1H-inden-2-yl]-4-[(4-methanesulfonylphenoxy)methyl]-2-methylpyrrolidine] | 398
1140 | C[C@@H]1C[C@H](COc2ccc(S(C)(=O)=O)cc2)CN1C1Cc2ccc(Cl)cc2C1 (single isomer, unassigned) [Compound 4, (2R,4S)-1-[(2S or 2R)-5-chloro-2,3-dihydro-1H-inden-2-yl]-4-[(4-methanesulfonylphenoxy)methyl]-2-methylpyrrolidine] | 2350
488 | C[C@@H]1C[C@H](COc2ccc(S(C)(=O)=O)cc2)CN1C1CCc2ccc(Cl)cc2C1 (single isomer, unassigned) [Compound 5, (2R,4S)-1-[(2S or 2R)-7-chloro-1,2,3,4-tetrahydronaphthalen-2-yl]-4-[(4-methanesulfonylphenoxy)methyl]-2-methylpyrrolidine] | 47.6
– | C[C@@H]1C[C@H](COc2ccc(S(=O)(=O)C3CNC3)cc2)CN1C1CCc2ccc(C#N)cc2C1 (single isomer, unassigned) [Compound 27] | 145
– | C[C@@H]1C[C@H](COc2ccc(S(=O)(=O)C3CNC3)cc2)CN1C1CCc2ccc(C#N)cc2C1 (single isomer, unassigned) [Compound 28] | 401
– | C[C@@H]1C[C@H](COc2ccc(S(=O)(=O)C3CNC3)cc2)CN1C1CCc2ccc(C#N)cc2C1 (single isomer, unassigned) [Compound 29] | 58.4
– | CN=S(C)(=O)c1ccc(OC[C@H]2C[C@@H](C)N(C3CCc4ccc(C#N)cc4C3)C2)cc1 (single isomer, unassigned) [Compound 37, (7R or 7S)-7-[(2R,4S)-2-methyl-4-({4-[methyl(methylimino)oxo-λ^6-sulfanyl]phenoxy}methyl)pyrrolidin-1-yl]-5,6,7,8-tetrahydronaphthalene-2-carbonitrile] | 769
– | C[C@@H]1CN(CC(O)c2cccc(Cl)c2)C[C@H]1COc1ccc(S(C)(=O)=O)cc1 (single isomer, unassigned) [Compound 91, (1R) or (1S)-1-(3-chlorophenyl)-2-[trans-3-[(4-methanesulfonylphenoxy)methyl]-4-methylpyrrolidin-1-yl]ethan-1-ol] | 1610
– | COC(=O)CCCS(=O)(=O)c1ccc(OC[C@@H]2CN(CCc3cccc(Cl)c3)C[C@H]2C)cc1 [Compound 79, methyl 4-(4-{[(3S,4S)-1-[2-(3-chlorophenyl)ethyl]-4-methylpyrrolidin-3-yl]methoxy}benzenesulfonyl)butanoate] | 334
– | C[C@@H]1CN(CCc2cccc(C#N)c2)C[C@H]1COc1cc(F)c(S(C)(=O)=O)c(F)c1 [Compound 81, 3-{2-[(3S,4S)-3-[(3,5-difluoro-4-methanesulfonylphenoxy)methyl]-4-methylpyrrolidin-1-yl]ethyl}benzonitrile] | 144
– | Cc1cc(OC[C@@H]2CN(CCc3cccc(C#N)c3)C[C@H]2C)cnc1S(C)(=O)=O [Compound 87, 3-{2-[(3S,4S)-3-{[(6-methanesulfonyl-5-methylpyridin-3-yl)oxy]methyl}-4-methylpyrrolidin-1-yl]ethyl}benzonitrile] | 185
– | C[C@H]1CN(CCc2cccc(Cl)c2)C[C@@H]1COc1ccc(S(C)(=O)=O)cc1 [Compound 92, (3R,4R)-1-[2-(3-chlorophenyl)ethyl]-3-[(4-methanesulfonylphenoxy)methyl]-4-methylpyrrolidine] | 2070
